Target: T1, hyaluronidase type I-S from bovine testes (BTH; Hyal) (Bos taurus, UniProt Q2YDK3)
T1 construct: gene SPAM1; commercial unlabeled enzyme from bovine testes
T1 sequence (Q2YDK3 36-553): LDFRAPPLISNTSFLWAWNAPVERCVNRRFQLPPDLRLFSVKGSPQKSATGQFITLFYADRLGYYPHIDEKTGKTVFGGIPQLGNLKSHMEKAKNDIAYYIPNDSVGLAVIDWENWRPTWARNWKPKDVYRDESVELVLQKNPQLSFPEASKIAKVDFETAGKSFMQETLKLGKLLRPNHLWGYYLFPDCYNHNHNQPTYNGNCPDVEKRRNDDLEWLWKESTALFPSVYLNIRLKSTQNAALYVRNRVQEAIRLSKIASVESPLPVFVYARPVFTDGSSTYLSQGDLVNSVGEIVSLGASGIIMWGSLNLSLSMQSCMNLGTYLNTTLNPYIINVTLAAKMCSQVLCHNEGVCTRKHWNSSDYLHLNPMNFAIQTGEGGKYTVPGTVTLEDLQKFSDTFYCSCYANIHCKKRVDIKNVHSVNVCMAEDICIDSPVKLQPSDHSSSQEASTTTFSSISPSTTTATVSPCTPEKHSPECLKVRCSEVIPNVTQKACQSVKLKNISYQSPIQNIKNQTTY
Experiment: CE-UV enzymatic assay of hyaluronic acid degradation; inhibition at […] without trehalose ([…] with […] trehalose)
Type: biochemical
Settings: read-out: Inhibition at 1 mg/mL-Equation (1) / 0% Trehalose

An inhibition at 1000 µg/mL of 25 ± 5% was found for `O=c1cc(-c2ccc(O)cc2)oc2cc(O[C@@H]3O[C@H](CO)[C@@H](O)[C@H](O)[C@H]3O)cc(O)c12` [apigenin-7-glucoside] in this work.

— PMC12525580, “Impacts of Tween-20, Glycerol, and Trehalose on Hyaluronidase Activity: Insights from Microscale Thermophoresis and Capillary Electrophoresis” (Molecules, 2025)
